Laboratory results: paper PMC6207684, “Structural reorganization of SHP2 by oncogenic mutations and implications for oncoprotein resistance to allosteric inhibition” (Nature Communications, 2018)
Residue numbers refer to the chain shown, from its start. Where a SMILES comes first, the peptide text is derived from it. [ ]: non-standard residue; d: D form. pY = N[C@@H](Cc1ccc(OP(=O)(O)O)cc1)C(=O)O; PEG8 = NCCOCCOCCOCCOCCOCCOCCOCCOCCC(=O)O

Tests used:
Test in all cases: SHP2 phosphatase activity upon p-IRS-1 peptide stimulation (DiFMUP)
Format in all cases: biochemical
Conditions in all cases: 200 μM DiFMUP, read-out: pIRS-1 AC50
SHP2^F285S = target: T1, SHP2^F285S (Homo sapiens, UniProt Q06124, F285S)
T1 construct: made in house
T1 sequence (Q06124 1-593 F285S): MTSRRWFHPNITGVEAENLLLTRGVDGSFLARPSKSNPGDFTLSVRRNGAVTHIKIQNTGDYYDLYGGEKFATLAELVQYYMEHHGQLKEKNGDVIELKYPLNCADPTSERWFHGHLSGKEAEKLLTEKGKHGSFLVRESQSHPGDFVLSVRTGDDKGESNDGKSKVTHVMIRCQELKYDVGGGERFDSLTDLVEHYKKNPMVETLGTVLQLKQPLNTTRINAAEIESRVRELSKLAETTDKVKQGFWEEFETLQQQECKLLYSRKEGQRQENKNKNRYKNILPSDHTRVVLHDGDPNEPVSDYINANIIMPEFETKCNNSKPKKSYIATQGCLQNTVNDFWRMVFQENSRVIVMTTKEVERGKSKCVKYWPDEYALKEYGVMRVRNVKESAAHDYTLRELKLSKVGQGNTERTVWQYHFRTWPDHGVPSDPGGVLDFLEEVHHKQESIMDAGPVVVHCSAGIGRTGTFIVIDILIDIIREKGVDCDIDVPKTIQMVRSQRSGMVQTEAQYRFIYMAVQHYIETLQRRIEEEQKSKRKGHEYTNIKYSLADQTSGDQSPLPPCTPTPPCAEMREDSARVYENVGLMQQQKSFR
Method: (§1) Wild-type and mutant SHP2 proteins were diluted to 0.1 nM and treated with either varying concentrations of diphosphorylated IRS-1 peptide (pY1172-Peg-PY1222, SLNY(p)IDLDLVK-dPEG8-LSTY(p)ASINFQK), or for maximal activation, 10 μM pY1172-Peg-PY1222. Phosphatase activity was measured through the dephosphorylation DiFMUP (200 μM, ex. 385, em. 450 nm) on a Spectramax M5 plate reader and converted to product (DiFMU)/time by preparing a standard curve of DiFMU/DiFMUP. Velocity data were fit to the following three-parameter dose–response curve (Eq. (2)) to extrapolate EC50 values:2 V=Basal+Max-Basal∕1+10^LogEC50-S Where V represents enzyme velocity, Basal is basal response, Max is maximal response, [S] is substrate concentration, and EC50 is the substrate concentration that yields response half way between basal and maximal.

SHP2^D61V = target: T2, SHP2^D61V (Homo sapiens, UniProt Q06124, D61V)
T2 construct: made in house
T2 sequence (Q06124 1-593 D61V): T1 sequence (Q06124 1-593 F285S) with D61V, S285F
Method: as §1

SHP2^G60V = target: T3, SHP2^G60V (Homo sapiens, UniProt Q06124, G60V)
T3 construct: made in house
T3 sequence (Q06124 1-593 G60V): T1 sequence (Q06124 1-593 F285S) with G60V, S285F
Method: as §1

SHP2^S502P = target: T4, SHP2^S502P (Homo sapiens, UniProt Q06124, S502P)
T4 construct: made in house
T4 sequence (Q06124 1-593 S502P): T1 sequence (Q06124 1-593 F285S) with S285F, S502P
Method: as §1

SHP2^WT = target: T5, SHP2^WT (Homo sapiens, UniProt Q06124)
T5 construct: made in house
T5 sequence (Q06124 1-593): T1 sequence (Q06124 1-593 F285S) with S285F
Method: as §1

AC50 (SHP2^F285S): 18 ± 2 nM
AC50 (SHP2^D61V): 4 ± 1 nM
AC50 (SHP2^G60V): 9 ± 2 nM
AC50 (SHP2^S502P): 5 ± 2 nM
AC50 (SHP2^WT): 247 ± 18 nM
SMILES: CC[C@H](C)[C@H](NC(=O)[C@H](CO)NC(=O)[C@H](C)NC(=O)[C@H](Cc1ccc(OP(=O)(O)O)cc1)NC(=O)[C@@H](NC(=O)[C@H](CO)NC(=O)[C@H](CC(C)C)NC(=O)CCOCCOCCOCCOCCOCCOCCOCCOCCNC(=O)[C@H](CCCCN)NC(=O)[C@@H](NC(=O)[C@H](CC(C)C)NC(=O)[C@H](CC(=O)O)NC(=O)[C@H](CC(C)C)NC(=O)[C@H](CC(=O)O)NC(=O)[C@@H](NC(=O)[C@H](Cc1ccc(OP(=O)(O)O)cc1)NC(=O)[C@H](CC(N)=O)NC(=O)[C@H](CC(C)C)NC(=O)[C@@H](N)CO)[C@@H](C)CC)C(C)C)[C@@H](C)O)C(=O)N[C@@H](CC(N)=O)C(=O)N[C@@H](Cc1ccccc1)C(=O)N[C@@H](CCC(N)=O)C(=O)N[C@@H](CCCCN)C(=O)O [pIRS-1, SLNY(p)IDLDLVK-dPEG8-LSTY(p)ASINFQK] (H-SLN[pY]IDLDLVK[PEG8]LST[pY]ASINFQK-OH)
